According to the supplement of paper PMC10307832:

Tests used:
Assay in all cases: relative viability (nuclei count vs DMSO), 5 days (fraction); higher = more cells survive
Elesclomol + Olaparib = compound: CN(NC(=O)CC(=O)NN(C)C(=S)c1ccccc1)C(=S)c1ccccc1 [Elesclomol] + O=C(c1cc(Cc2n[nH]c(=O)c3ccccc23)ccc1F)N1CCN(C(=O)C2CC2)CC1 [Olaparib] (partner 8 µM)
In short: (§1)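 One day after seeding in 1536-well plates, lung cancer cell lines were dosed by pin tool. Dosing was either single-drug or a fixed anchor-drug dose plus five library-drug doses (not always all listed) in √10 steps. After 5 days, nuclei were stained in one fix-and-stain step and counted on 4× images, and relative viability is the nuclei count of treated wells over that of vehicle wells, given as the median of duplicate plates.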

Elesclomol + Dasatinib = compound: CN(NC(=O)CC(=O)NN(C)C(=S)c1ccccc1)C(=S)c1ccccc1 [Elesclomol] + Cc1nc(Nc2ncc(C(=O)Nc3c(C)cccc3Cl)s2)cc(N2CCN(CCO)CC2)n1 [Dasatinib] (partner 0.075 µM)
In short: as §1

Elesclomol + Navitoclax = compound: CN(NC(=O)CC(=O)NN(C)C(=S)c1ccccc1)C(=S)c1ccccc1 [Elesclomol] + CC1(C)CCC(c2ccc(Cl)cc2)=C(CN2CCN(c3ccc(C(=O)NS(=O)(=O)c4ccc(N[C@H](CCN5CCOCC5)CSc5ccccc5)c(S(=O)(=O)C(F)(F)F)c4)cc3)CC2)C1 [Navitoclax] (partner 0.5 µM)
In short: as §1

Elesclomol + Foretinib = compound: CN(NC(=O)CC(=O)NN(C)C(=S)c1ccccc1)C(=S)c1ccccc1 [Elesclomol] + COc1cc2c(Oc3ccc(NC(=O)C4(C(=O)Nc5ccc(F)cc5)CC4)cc3F)ccnc2cc1OCCCN1CCOCC1 [Foretinib] (partner 0.25 µM)
In short: as §1

Elesclomol + Decitabine = compound: CN(NC(=O)CC(=O)NN(C)C(=S)c1ccccc1)C(=S)c1ccccc1 [Elesclomol] + Nc1ncn([C@H]2C[C@H](O)[C@@H](CO)O2)c(=O)n1 [Decitabine] (partner 2 µM)
In short: as §1

| Cell Line | relative viability (Elesclomol + Olaparib; first compound 0.003162 µM) | relative viability (Elesclomol + Olaparib; first compound 0.01 µM) | relative viability (Elesclomol + Olaparib; first compound 0.03162 µM) | relative viability (Elesclomol + Olaparib; first compound 0.1 µM) | relative viability (Elesclomol + Dasatinib; first compound 0.003162 µM) | relative viability (Elesclomol + Dasatinib; first compound 0.01 µM) | relative viability (Elesclomol + Dasatinib; first compound 0.03162 µM) | relative viability (Elesclomol + Dasatinib; first compound 0.1 µM) | relative viability (Elesclomol + Navitoclax; first compound 0.003162 µM) | relative viability (Elesclomol + Navitoclax; first compound 0.01 µM) | relative viability (Elesclomol + Navitoclax; first compound 0.03162 µM) | relative viability (Elesclomol + Navitoclax; first compound 0.1 µM) | relative viability (Elesclomol + Foretinib; first compound 0.003162 µM) | relative viability (Elesclomol + Foretinib; first compound 0.01 µM) | relative viability (Elesclomol + Foretinib; first compound 0.03162 µM) | relative viability (Elesclomol + Foretinib; first compound 0.1 µM) | relative viability (Elesclomol + Decitabine; first compound 0.003162 µM) | relative viability (Elesclomol + Decitabine; first compound 0.01 µM) | relative viability (Elesclomol + Decitabine; first compound 0.03162 µM) | relative viability (Elesclomol + Decitabine; first compound 0.1 µM) |
| --- | --- | --- | --- | --- | --- | --- | --- | --- | --- | --- | --- | --- | --- | --- | --- | --- | --- | --- | --- | --- |
| NCI-H2405 | 0.737 | 0.693 | 0.386 | 0.353 | 0.227 | 0.231 | 0.222 | 0.203 | 0.619 | 0.178 | 0.137 | 0.132 | 1.04 | 0.663 | 0.336 | 0.292 | 0.775 | 0.643 | 0.336 | 0.324 |
| NCI-H2009 | 0.643 | 0.515 | 0.128 | 0.109 | 0.263 | 0.126 | 0.112 | 0.0747 | 1.17 | 0.567 | 0.277 | 0.11 | 1.2 | 0.97 | 0.207 | 0.171 | 0.425 | 0.245 | 0.173 | 0.118 |
| HCC-78 | 0.735 | 0.574 | 0.641 | 0.945 | 0.28 | 0.407 | 0.319 | 0.34 | 0.778 | 0.755 | 0.793 | 0.627 | 0.516 | 0.574 | 0.548 | 0.583 | 0.727 | 0.674 | 0.701 | 0.564 |
| NCI-H2170 | 0.55 | 0.558 | 0.638 | 0.344 | 0.546 | 0.539 | 0.484 | 0.43 | 0.628 | 0.475 | 0.493 | 0.245 | 1.02 | 1.03 | 0.977 | 0.764 | 0.461 | 0.48 | 0.48 | 0.38 |
| NCI-H1793 | 0.818 | 0.692 | 0.386 | 0.0938 | 0.358 | 0.268 | 0.373 | 0.136 | 0.349 | 0.349 | 0.382 | 0.135 | 0.613 | 0.618 | 0.658 | 0.193 | 0.44 | 0.387 | 0.454 | 0.126 |
| ABC-1 | 0.23 | 0.428 | 0.248 | 0.342 | 0.173 | 0.233 | 0.207 | 0.193 |  |  |  |  | 0.255 | 0.221 | 0.259 | 0.215 | 0.409 | 0.345 | 0.318 | 0.279 |
| NCI-H1703 | 0.173 | 0.0985 | 0.093 | 0.0575 |  |  |  |  | 0.141 | 0.0995 | 0.116 | 0.107 | 0.26 | 0.207 | 0.129 | 0.133 |  |  |  |  |
| NCI-H661 | 0.702 | 0.464 | 0.271 | 0.186 | 0.869 | 0.477 | 0.223 | 0.177 |  |  |  |  | 0.885 | 0.54 | 0.275 | 0.293 | 0.58 | 0.468 | 0.296 | 0.239 |
| LCLC-103H | 0.724 | 0.737 | 0.815 | 0.639 | 0.498 | 0.344 | 0.533 | 0.399 |  |  |  |  | 0.771 | 0.768 | 0.862 | 0.487 | 0.765 | 0.686 | 0.734 | 0.742 |
| NCI-H2342 | 0.476 | 0.37 | 0.434 | 0.367 | 0.318 | 0.305 | 0.247 | 0.267 |  |  |  |  | 1.08 | 0.915 | 0.437 | 0.344 | 0.697 | 0.866 | 0.784 | 0.602 |
| SW 900 | 0.774 | 0.596 | 0.264 | 0.0917 | 0.626 | 0.41 | 0.144 | 0.196 |  |  |  |  | 0.87 | 0.91 | 0.127 | 0.0681 | 0.404 | 0.358 | 0.204 | 0.13 |
| NCI-H522 | 0.617 | 0.812 | 0.618 | 0.431 | 0.842 | 0.812 | 0.868 | 0.454 |  |  |  |  |  |  |  |  | 0.693 | 0.649 | 0.7 | 0.469 |
| CAL-12T | 0.64 | 0.321 | 0.117 | 0.0718 | 0.282 | 0.117 | 0.0442 | 0.0555 | 1 | 0.243 | 0.123 | 0.0625 | 1.04 | 1.16 | 0.263 | 0.144 |  |  |  |  |
| NCI-H650 | 0.426 | 0.319 | 0.204 | 0.241 | 0.535 | 0.341 | 0.227 | 0.24 |  |  |  |  | 1.07 | 0.509 | 0.329 | 0.243 | 0.343 | 0.281 | 0.211 | 0.16 |
| NCI-H2228 | 0.537 | 0.365 | 0.195 | 0.0479 | 0.545 | 0.269 | 0.2 | 0.039 | 0.739 | 0.586 | 0.325 | 0.0519 | 0.863 | 0.844 | 0.252 | 0.054 |  |  |  |  |
| NCI-H1792 | 0.5 |  | 0.395 | 0.169 | 0.951 | 0.586 | 0.612 | 0.655 | 0.608 | 0.566 | 0.504 | 0.628 |  |  |  |  | 0.53 |  | 0.523 | 0.443 |
| HCC-44 | 0.965 | 0.914 | 0.976 | 1 |  |  |  |  | 0.941 | 0.993 | 0.987 | 0.538 |  |  |  |  | 0.913 | 0.941 | 0.952 | 0.94 |
| IA-LM | 0.892 | 0.526 | 0.181 | 0.115 |  |  |  |  | 0.415 | 0.133 | 0.0436 | 0.0194 | 1.13 | 0.54 | 0.0372 | 0.009 |  |  |  |  |
| NCI-H358 | 0.758 | 0.346 | 0.107 | 0.138 | 0.0973 | 0.101 | 0.0734 | 0.0654 |  |  |  |  | 0.261 | 0.182 | 0.106 | 0.1 | 0.171 | 0.108 | 0.0885 | 0.0726 |
| NCI-H1563 |  |  |  |  | 0.447 | 0.476 | 0.413 | 0.382 |  |  |  |  | 0.727 | 0.724 | 0.617 | 0.459 |  |  |  |  |
